Measured values taken from US20220363662A1, “COMPOUNDS AS LXR AGONISTS” (Integral Biosciences Privated Limited, priority 2021, published 2022).

Molecular target: T1, LXR beta (Homo sapiens, UniProt P55055)
T1 construct: 5 μL of 4×LXR beta-LBD was added to each well (final concentration 5 nM); purchased Thermofisher PV4658
T1 sequence (P55055 222-460 limits assumed): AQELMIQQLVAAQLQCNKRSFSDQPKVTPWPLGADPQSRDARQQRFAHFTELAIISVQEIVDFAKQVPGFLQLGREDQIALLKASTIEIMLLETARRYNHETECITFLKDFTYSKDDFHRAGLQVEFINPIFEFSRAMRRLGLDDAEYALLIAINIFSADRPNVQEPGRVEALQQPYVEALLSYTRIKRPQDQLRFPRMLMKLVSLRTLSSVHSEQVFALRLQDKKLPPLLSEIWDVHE
Experiment: LXR beta agonist assay (Lanthascreen TR-FRET)
Assay type: biochemical
Details: LXR beta-LBD 5 nM, read-out: LXR-β EC50
Experimental: EC50 values of compounds against LXR beta were determined at Integral BioSciences (India) using Lanthascreen TR-FRET (Thermofisher, Cat #PV4658). Assay was performed in a 20 μL final volume in a Black 384-well plate (Corning, Cat #4511). Dose response curve for the compounds were prepared in duplicates with starting concentration at 30 μM and a three-fold titration was performed. The reaction buffer consisted of TR-FRET Coregulator Buffer G. To the compound dilution, 5 μL of 4×LXR beta-LBD was added to each well (final concentration 5 nM). An equal volume (5 μL) containing 4×Fl-D22/Tb-anti GST antibody (final concentration 100 nM/10 nM) was added to initiate the enzyme reaction and the reaction was incubated for 60 min at 22° C. after which the plates were read using BioTek Plate reader for TR-FRET every hour up to 4 hours.
Analysis was done using the standard curve by non-linear regression, variable slope inhibitor curve fits (Graph-Pad Prism) and EC50's of compounds were determined wherever possible.

CN(C)C(=O)c1ccc(NC2CN(C3CCN(C(=O)[C@](O)(c4ccccc4)C(F)(F)F)CC3)C2)cc1Cl (single isomer, unassigned) [Compound 1.9] was tested, and the EC50 was > 30 µM.
With CN(C)C(=O)c1ccc(NC2CN(C3CCN(C(=O)[C@](O)(c4ccccc4)C(F)(F)F)CC3)C2)cc1F (single isomer, unassigned) [Compound 1.86] the EC50 was > 30 µM.
CN(C)C(=O)c1ccc(NC2CN(C3CCN(C(=O)[C@](O)(c4ccccc4)C(F)(F)F)CC3)C2)cc1F (single isomer, unassigned) [Compound 1.87] was tested, and the EC50 was > 30 µM.
Work on CCN(CC)C(=O)c1ccc(NC2CN(C3CCN(C(=O)[C@@](O)(c4ccccc4)C(F)(F)F)CC3)C2)cc1Cl (single isomer, unassigned) [Compound 1.96] yielded an EC50 of 4.57 µM.
Work on CCN(CC)C(=O)c1ccc(NC2CN(C3CCN(C(=O)[C@](O)(c4ccccc4)C(F)(F)F)CC3)C2)cc1Cl (single isomer, unassigned) [Compound 1.97] yielded an EC50 of 1.17 µM.
In the case of O=C(c1ccc(NC2CN(C3CCN(C(=O)[C@@](O)(c4ccccc4)C(F)(F)F)CC3)C2)cc1Cl)N1CCCC1 (single isomer, unassigned) [Compound 1.99], the EC50 is reported as 1.82 µM.
Work on CC(=O)N1CCN(C(=O)c2ccc(NC3CN(C4CCN(C(=O)[C@@](O)(c5ccccc5)C(F)(F)F)CC4)C3)cc2Cl)CC1 (single isomer, unassigned) [Compound 1.105] yielded an EC50 of 2.25 µM.
O=C(NCC(F)F)c1ccc(NC2CN(C3CCN(C(=O)[C@](O)(c4ccccc4)C(F)(F)F)CC3)C2)cc1Cl (single isomer, unassigned) [Compound 1.106] showed an EC50 of 2.71 µM.
With O=C(NCC(F)F)c1ccc(NC2CN(C3CCN(C(=O)[C@@](O)(c4ccccc4)C(F)(F)F)CC3)C2)cc1Cl (single isomer, unassigned) [Compound 1.107] the EC50 was 1.3 µM.
O=C(c1ccc(NC2CN(C3CCN(C(=O)[C@](O)(c4ccccc4)C(F)(F)F)CC3)C2)cc1Cl)N1CCCCC1 (single isomer, unassigned) [Compound 1.108] gave an EC50 of 1.57 µM.
O=C(c1ccc(NC2CN(C3CCN(C(=O)[C@](O)(c4ccccc4)C(F)(F)F)CC3)C2)cc1Cl)N1CCCCC1 (single isomer, unassigned) [Compound 1.109] showed an EC50 of 3.01 µM.
CN(C)C(=O)c1ccc(NC2CN(C3CCN(C(=O)[C@@](O)(c4ccc(F)cc4)C(F)(F)F)CC3)C2)cc1Cl (single isomer, unassigned) [Compound 1.116] gave an EC50 of 9.85 µM.
CN(C)C(=O)c1ccc(NC2CN(C3CCN(C(=O)[C@@](O)(c4cccc(Cl)c4)C(F)(F)F)CC3)C2)cc1Cl (single isomer, unassigned) [Compound 1.118] gave an EC50 of 0.241 µM.
Work on Cc1cccc([C@](O)(C(=O)N2CCC(N3CC(Nc4ccc(C(=O)N(C)C)c(Cl)c4)C3)CC2)C(F)(F)F)c1 (single isomer, unassigned) [Compound 1.121] yielded an EC50 of 2.85 µM.
For CN(C)C(=O)c1ccc(NC2CN(C3CCN(S(=O)(=O)c4ccccc4Cl)CC3)C2)cc1Cl [Compound 1.2, 2-chloro-4-(1-(1-(2-chlorophenylsulfonyl)piperidin-4-yl)azetidin-3-ylamino)-N,N-dimethylbenzamide], the EC50 was 3.34 µM.
With CN(C)C(=O)c1ccc(-c2nnc(C3CCN(S(=O)(=O)c4ccccc4Cl)CC3)s2)cc1Cl [Compound 1.11, 2-chloro-4-(5-(1-(2-chlorophenylsulfonyl)piperidin-4-yl)-1,3,4-thiadiazol-2-yl)-N,N-dimethylbenzamide] the EC50 was 3.09 µM.
CN(C)C(=O)c1ccc(NC2CN(C3CCN(S(=O)(=O)c4ccccc4C#N)CC3)C2)cc1Cl [Compound 1.13, 2-chloro-4-(1-(1-(2-cyanophenylsulfonyl)piperidin-4-yl)azetidin-3-ylamino)-N,N-dimethylbenzamide] gave an EC50 of 4.43 µM.
Compound N#Cc1ccccc1S(=O)(=O)N1CCC(C2CCN(c3cc(Cl)c4c(=O)[nH]ccc4c3)CC2)CC1 [Compound 1.15, 2-(1′-(8-chloro-1-oxo-1,2-dihydroisoquinolin-6-yl)-4,4′-bipiperidin-1-ylsulfonyl)benzonitrile] has an EC50 of 2.74 µM.
O=C(N1CCC(C2CCN(c3cc(Cl)c4c(=O)[nH]ccc4c3)CC2)CC1)C1(c2ccccc2)CCC1 [Compound 1.22, 8-chloro-6-(1′-(1-phenylcyclobutanecarbonyl)-[4,4′-bipiperidin]-1-yl)isoquinolin-1(2H)-one] showed an EC50 of 2.4 µM.
CC(C)(C(=O)N1CCC(C2CCN(c3cc(Cl)c4c(=O)[nH]ccc4c3)CC2)CC1)c1ccccc1 [Compound 1.24, 8-chloro-6-(1′-(2-methyl-2-phenylpropanoyl)-4,4′-bipiperidin-1-yl)isoquinolin-1(2H)-one] was tested, and the EC50 was 2.48 µM.
CN(C)C(=O)c1ccc(-c2ccn(C3CCN(C(=O)C(O)(c4ccccc4)C(F)(F)F)CC3)c(=O)c2)cc1Cl (stereo not drawn) [Compound 1.27, 2-chloro-N,N-dimethyl-4-(2-oxo-1-(1-(3,3,3-trifluoro-2-hydroxy-2-phenylpropanoyl)piperidin-4-yl)-1,2-dihydropyridin-4-yl)benzamide] was tested, and the EC50 was > 30 µM.
Work on CN(C)C(=O)c1ccc(N(C)C2CN(C3CCN(C(=O)C4(c5ccccc5)CCC4)CC3)C2)cc1Cl [Compound 1.31, 2-chloro-N,N-dimethyl-4-(methyl(1-(1-(1-phenylcyclobutanecarbonyl)piperidin-4-yl)azetidin-3-yl)amino)benzamide] yielded an EC50 of 3.23 µM.
With CN(C)C(=O)c1ccc(N(C)C2CN(C3CCN(C(=O)[C@](O)(c4ccccc4)C(F)(F)F)CC3)C2)cc1Cl [Compound 1.32, (R)-2-chloro-N,N-dimethyl-4-(methyl(1-(1-(3,3,3-trifluoro-2-hydroxy-2-phenylpropanoyl)piperidin-4-yl)azetidin-3-yl)amino)benzamide] the EC50 was 7.23 µM.
Compound CN(C)C(=O)c1ccc(NC2CN(C3CCN(C(=O)C4(c5ccc(Cl)cc5)CCC4)CC3)C2)cc1Cl [Compound 1.33, 2-chloro-4-(1-(1-(1-(4-chlorophenyl)cyclobutanecarbonyl)piperidin-4-yl)azetidin-3-ylamino)-N,N-dimethylbenzamide] has an EC50 of 4.3 µM.
CN(C)C(=O)c1ccc(NC2CN(C3CCN(C(=O)C4(c5ccc(F)cc5)CCCC4)CC3)C2)cc1Cl [Compound 1.34, 2-chloro-4-(1-(1-(1-(4-fluorophenyl)cyclopentanecarbonyl)piperidin-4-yl)azetidin-3-ylamino)-N,N-dimethylbenzamide] gave an EC50 of 3.41 µM.
CN(C)C(=O)c1ccc(-c2nnc(C3=CCN(C(=O)C(C)(C)C)CC3)s2)cc1Cl [Compound 1.59, 2-chloro-N,N-dimethyl-4-(5-(1-pivaloyl-1,2,3,6-tetrahydropyridin-4-yl)-1,3,4-thiadiazol-2-yl)benzamide] was tested, and the EC50 was 5.45 µM.
CN(C)C(=O)c1ccc(-c2nnc(C3=CCN(C(=O)C4CCC(F)(F)CC4)CC3)s2)cc1Cl [Compound 1.60, 2-chloro-4-(5-(1-(4,4-difluorocyclohexanecarbonyl)-1,2,3,6-tetrahydropyridin-4-yl)-1,3,4-thiadiazol-2-yl)-N,N-dimethylbenzamide] showed an EC50 of 1.51 µM.
With CN(C)C(=O)c1ccc(-c2nnc(C3=CCN(S(=O)(=O)c4cc(Cl)ccc4Cl)CC3)s2)cc1Cl [Compound 1.61, 2-chloro-4-(5-(1-(2,5-dichlorophenylsulfonyl)-1,2,3,6-tetrahydropyridin-4-yl)-1,3,4-thiadiazol-2-yl)-N,N-dimethylbenzamide] the EC50 was > 10 µM.
With COc1ncc(Cl)cc1S(=O)(=O)N1CC=C(c2nnc(-c3ccc(C(=O)N(C)C)c(Cl)c3)s2)CC1 [Compound 1.62, 2-chloro-4-(5-(1-(5-chloro-2-methoxypyridin-3-ylsulfonyl)-1,2,3,6-tetrahydropyridin-4-yl)-1,3,4-thiadiazol-2-yl)-N,N-dimethylbenzamide] the EC50 was > 10 µM.
With CN(C)C(=O)c1ccc(NC2CN(C3CCN(C(=O)C4CCC(F)(F)CC4)CC3)C2)cc1Cl [Compound 1.63, 2-chloro-4-(1-(1-(4,4-dfluorocyclohexanecarbonyl)piperidin-4-yl)azetidin-3-ylamino)-N,N-dimethylbenzamide] the EC50 was > 30 µM.
In the case of COc1cccc(C2(C(=O)N3CC=C(c4nnc(-c5ccc(C(=O)N(C)C)c(Cl)c5)s4)CC3)CCCC2)c1 [Compound 1.64, 2-chloro-4-(5-(1-(1-(3-methoxyphenyl)cyclopentanecarbonyl)-1,2,3,6-tetrahydropyridin-4-yl)-1,3,4-thiadiazol-2-yl)-N,N-dimethylbenzamide], the EC50 is reported as > 30 µM.
Compound CN(C)C(=O)c1ccc(-c2nnc(C3=CCN(C(=O)C45CC6CC(CC(C6)C4)C5)CC3)s2)cc1Cl [Compound 1.65, 4-{5-[1-(adamantane-1-carbonyl)-1,2,3,6-tetrahydropyridin-4-yl]-1,3,4-thiadiazol-2-yl}-2-chloro-N,N-dimethylbenzamide] has an EC50 of 3.96 µM.
For CN(C)C(=O)c1ccc(NC2CN(C3CCN(C(=O)C45CC6CC(CC(C6)C4)C5)CC3)C2)cc1Cl [Compound 1.66, 4-({1-[1-(adamantane-1-carbonyl)piperidin-4-yl]azetidin-3-yl}amino)-2-chloro-N,N-dimethylbenzamide], the EC50 was > 20.4 µM.
